pEC50: −log10 of the molar value. Activity calls are given as the source filed them. No cut-off for these calls is given here.
Assays:
Jurkat [1] = test: Phototoxicity against human Jurkat cells assessed as reduction in cell viability preincubated for 30 mins followed by 1.25 J/cm2 UV light irradiation measured after 48 hrs by MTT assay; format: functional, cell-based; conditions: light or radiation study
[2] = Dark toxicity against human K562 cells assessed as reduction in cell viability after 72 hrs by MTT assay; format: cell-based
Jurkat [3] = test: Phototoxic index, ratio of CC50 for human Jurkat cells under dark condition to EC50 for human Jurkat cells under UV light irradiated condition
K562 [4] = test: Phototoxicity against human K562 cells assessed as reduction in cell viability preincubated for 30 mins followed by 1.25 J/cm2 UV light irradiation measured after 48 hrs by MTT assay; format: functional, cell-based; conditions: K562, light or radiation study
MCF7 [5] = test: Phototoxic index, ratio of CC50 for human MCF7 cells under dark condition to EC50 for human MCF7 cells under UV light irradiated condition
K562 [6] = test: Phototoxic index, ratio of CC50 for human K562 cells under dark condition to EC50 for human K562 cells under UV light irradiated condition
[7] = Dark toxicity against human Jurkat cells assessed as reduction in cell viability after 72 hrs by MTT assay; format: cell-based
[8] = Dark toxicity against human MCF7 cells assessed as reduction in cell viability after 72 hrs by MTT assay; format: cell-based
MCF7 [9] = test: Phototoxicity against human MCF7 cells assessed as reduction in cell viability preincubated for 30 mins followed by 1.25 J/cm2 UV light irradiation measured after 48 hrs by MTT assay; format: functional, cell-based; conditions: MCF7, light or radiation study
Jurkat [10] = test: Induction of lipid peroxidation in human Jurkat cells upon 2.5 J/cm2 UV light irradiation measured after 24 hrs by TBARS assay; format: functional, cell-based
Jurkat [11] = test: Phototoxicity against human Jurkat cells assessed as reduction in cell viability at 0.1 uM preincubated for 30 mins followed by 2.5 J/cm2 UV light irradiation measured after 72 hrs in presence of hydroxyl radical scavenger DMTU by MTT assay; format: functional, cell-based
Escherichia coli [12] = test: Induction of Escherichia coli pBR322 DNA single strand break assessed as open circular form DNA bands at 10 to 40 uM upon 7.5 J/cm2 UV-A light irradiation by ethidium bromide staining based UV transillumination assay
Jurkat [13] = test: Phototoxicity against human Jurkat cells assessed as reduction in cell viability at 0.1 uM preincubated for 30 mins followed by 2.5 J/cm2 UV light irradiation measured after 72 hrs in presence of vitamin E by MTT assay; format: functional, cell-based
MCF7 [14] = test: Induction of apoptosis in human MCF7 cells assessed as caspase-3 activation at 0.5 uM upon 2.5 J/cm2 UV light irradiation measured after 24 hrs by Western blot method; format: functional, cell-based
Escherichia coli [15] = test: Induction of Escherichia coli pBR322 DNA oxidative damage at 40 uM upon 7.5 J/cm2 UV-A light irradiation in presence of Fpg by ethidium bromide staining based electrophoresis
Jurkat [16] = test: Phototoxicity against human Jurkat cells assessed as reduction in cell viability at 0.1 uM preincubated for 30 mins followed by 2.5 J/cm2 UV light irradiation measured after 72 hrs in presence of antioxidant GSH by MTT assay; format: functional, cell-based
Escherichia coli [17] = test: Induction of Escherichia coli pBR322 DNA double strand break assessed as linear form DNA bands at 10 to 40 uM upon 7.5 J/cm2 UV-A light irradiation by ethidium bromide staining based UV transillumination assay
Jurkat [18] = test: Phototoxicity against human Jurkat cells assessed as reduction in cell viability at 0.1 uM preincubated for 30 mins followed by 2.5 J/cm2 UV light irradiation measured after 72 hrs in presence of singlet oxygen scavenger sodium azide by MTT assay; format: functional, cell-based
Escherichia coli [19] = test: Induction of Escherichia coli pBR322 DNA oxidative damage at 40 uM upon 7.5 J/cm2 UV-A light irradiation in presence of endonuclease-3 by ethidium bromide staining based electrophoresis
[20] = Solubility of the compound in aqueous acetonitrile solution; format: physicochemical; conditions: buffer
MCF7 [21] = test: Induction of lysosomal activation in human MCF7 cells at 400 nM upon UV light irradiation measured up to 6 hrs by lysotracker green DND26 dye based confocal microscopic method; format: functional, cell-based
MCF7 [22] = test: Induction of mitochondrial dysfunction in human MCF7 cells assessed as organelle fusion at 400 nM upon UV light irradiation measured after 6 hrs by mitotracker orange CMTM-ROS/LCS1 dye based confocal microscopic method; format: functional, cell-based
MCF7 [23] = test: Induction of ROS generation in human MCF7 cells at 400 nM preincubated for 30 mins followed by UV light irradiation measured after 2 hrs by H2DCFDA staining based fluorescence assay relative to control; format: functional
[24] = Induction of singlet oxygen photogeneration in aqueous acetonitrile solution of ADPA assessed as photobleaching of anthracene absorption upon 150 Watt mercury light irradiation at 400 nanometer measured up to 2 hrs
[25] = Singlet oxygen sensitizing activity in aqueous acetonitrile solution irradiated with nanosecond laser flash photolysis assessed as lowest triplet-excited state by measuring long lived transient life time at 10^-4 M at 450 nanometer under argon saturated condition by spectroscopic method

COc1ccc(Cn2ccc3c2-c2nc(OC)c(S(=O)(=O)c4ccccc4)cc2CCC3)cc1
pEC50 (Jurkat [1]): 5.90 | CC50 at 72 h [2]: > 20 µM | Ratio CC50/EC50 (Jurkat [3]): >16 | pEC50 (K562 [4]): 5.25 | Ratio CC50/EC50 (MCF7 [5]): >4.22 | Ratio CC50/EC50 (K562 [6]): >3.53 | CC50 at 72 h [7]: > 20 µM | CC50 at 72 h [8]: > 20 µM | pEC50 (MCF7 [9]): 5.32

CCOC(=O)c1cc2c(n1Cc1ccc(OC)cc1)-c1nc(OC)c(S(=O)(=O)c3ccccc3)cc1CCC2
pEC50 (Jurkat [1]): 6.60 | Activity (Jurkat [10]): Dose-dependent effect | CC50 at 72 h [2]: > 20 µM | Activity (Jurkat [11]): Active | Ratio CC50/EC50 (Jurkat [3]): >80 | pEC50 (K562 [4]): 6.02 | Activity (Escherichia coli [12]): inactive | Activity (Jurkat [13]): inactive | Activity (MCF7 [14]): Active | Activity (Escherichia coli [15]): Active | Activity (Jurkat [16]): Active | Activity (Escherichia coli [17]): inactive | Activity (Jurkat [18]): Active | Activity (Escherichia coli [19]): Active | Ratio CC50/EC50 (MCF7 [5]): >19.71 | Ratio CC50/EC50 (K562 [6]): >21.05 | CC50 at 72 h [7]: > 20 µM | CC50 at 72 h [8]: > 20 µM | solubility [20]: Insoluble | pEC50 (MCF7 [9]): 6.00

COc1nc2c(cc1S(=O)(=O)c1ccccc1)CCCc1ccn(C)c1-2
pEC50 (Jurkat [1]): 5.71 | CC50 at 72 h [2]: > 20 µM | Ratio CC50/EC50 (Jurkat [3]): >10.2 | pEC50 (K562 [4]): 5.24 | Ratio CC50/EC50 (MCF7 [5]): >9.35 | Ratio CC50/EC50 (K562 [6]): >3.47 | CC50 at 72 h [7]: > 20 µM | CC50 at 72 h [8]: > 20 µM | pEC50 (MCF7 [9]): 5.67

COc1ccc(Cn2ccc3c2-c2[nH]c(=O)c(S(=O)(=O)c4ccccc4)cc2CCC3)cc1
pEC50 (Jurkat [1]): 6.03 | CC50 at 72 h [2]: > 20 µM | Ratio CC50/EC50 (Jurkat [3]): >21.51 | pEC50 (K562 [4]): 5.60 | Ratio CC50/EC50 (MCF7 [5]): >4.73 | Ratio CC50/EC50 (K562 [6]): >7.87 | CC50 at 72 h [7]: > 20 µM | CC50 at 72 h [8]: > 20 µM | pEC50 (MCF7 [9]): 5.37

CCOC(=O)c1cc2c(n1C)-c1c(cc(S(=O)(=O)c3ccccc3)c(=O)n1C)CCC2
pEC50 (Jurkat [1]): 5.94 | CC50 at 72 h [2]: > 20 µM | Ratio CC50/EC50 (Jurkat [3]): >17.39 | pEC50 (K562 [4]): 5.45 | Ratio CC50/EC50 (MCF7 [5]): >4.2 | Ratio CC50/EC50 (K562 [6]): >5.67 | CC50 at 72 h [7]: > 20 µM | CC50 at 72 h [8]: > 20 µM | pEC50 (MCF7 [9]): 5.32

COc1ccccc1Cn1ccc2c1-c1[nH]c(=O)c(S(=O)(=O)c3ccccc3)cc1CCC2
pEC50 (Jurkat [1]): 5.72 | CC50 at 72 h [2]: > 20 µM | Ratio CC50/EC50 (Jurkat [3]): >10.53 | pEC50 (K562 [4]): 5.11 | Ratio CC50/EC50 (MCF7 [5]): >21.23 | Ratio CC50/EC50 (K562 [6]): >2.6 | CC50 at 72 h [7]: > 20 µM | CC50 at 72 h [8]: > 20 µM | pEC50 (MCF7 [9]): 6.03

CCCCCCCCCCCCCC(=O)O[C@@H]1[C@@H](C)[C@@]2(O)[C@@H](C=C(CO)C[C@]3(O)C(=O)C(C)=C[C@@H]23)[C@@H]2C(C)(C)[C@]12OC(C)=O [PHORBOL MYRISTATE ACETATE]
Activity (MCF7 [21]): Active | Activity (MCF7 [22]): Active | Activity (MCF7 [23]): 120%

CCOC(=O)c1cc2c(n1C)-c1[nH]c(=O)c(S(=O)(=O)c3ccccc3)cc1CCC2
pEC50 (Jurkat [1]): 5.48 | CC50 at 72 h [2]: > 20 µM | Ratio CC50/EC50 (Jurkat [3]): >6.06 | pEC50 (K562 [4]): 4.97 | Ratio CC50/EC50 (MCF7 [5]): >20 | Ratio CC50/EC50 (K562 [6]): >1.87 | CC50 at 72 h [7]: > 20 µM | CC50 at 72 h [8]: > 20 µM | pEC50 (MCF7 [9]): 6.00

CCOC(=O)c1cc2c(n1Cc1ccccc1)-c1[nH]c(=O)c(S(=O)(=O)c3ccccc3)cc1CCC2
pEC50 (Jurkat [1]): 6.52 | CC50 at 72 h [2]: > 20 µM | Ratio CC50/EC50 (Jurkat [3]): >66.67 | pEC50 (K562 [4]): 6.40 | Ratio CC50/EC50 (MCF7 [5]): >14.22 | Ratio CC50/EC50 (K562 [6]): >50 | CC50 at 72 h [7]: > 20 µM | CC50 at 72 h [8]: > 20 µM | pEC50 (MCF7 [9]): 5.85

COc1cccc(Cn2ccc3c2-c2[nH]c(=O)c(S(=O)(=O)c4ccccc4)cc2CCC3)c1
pEC50 (Jurkat [1]): < 4.70 | CC50 at 72 h [2]: > 20 µM | pEC50 (K562 [4]): < 4.70 | Activity [24]: inactive | Ratio CC50/EC50 (MCF7 [5]): >10.76 | Time [25]: > 30 microsec | CC50 at 72 h [7]: > 20 µM | CC50 at 72 h [8]: > 20 µM | pEC50 (MCF7 [9]): 5.73

CCOC(=O)c1cc2c(n1Cc1cccc(OC)c1)-c1[nH]c(=O)c(S(=O)(=O)c3ccccc3)cc1CCC2
pEC50 (Jurkat [1]): 6.62 | CC50 at 72 h [2]: > 20 µM | Ratio CC50/EC50 (Jurkat [3]): >83.33 | pEC50 (K562 [4]): 6.33 | Ratio CC50/EC50 (MCF7 [5]): >7.77 | Ratio CC50/EC50 (K562 [6]): >42.55 | CC50 at 72 h [7]: > 20 µM | CC50 at 72 h [8]: > 20 µM | pEC50 (MCF7 [9]): 5.59

CCOC(=O)c1cc2c(n1C)-c1nc(OC)c(S(=O)(=O)c3ccccc3)cc1CCC2
pEC50 (Jurkat [1]): 6.60 | CC50 at 72 h [2]: > 20 µM | Ratio CC50/EC50 (Jurkat [3]): >80 | pEC50 (K562 [4]): 6.20 | Ratio CC50/EC50 (MCF7 [5]): >11.76 | Ratio CC50/EC50 (K562 [6]): >31.75 | CC50 at 72 h [7]: > 20 µM | CC50 at 72 h [8]: > 20 µM | pEC50 (MCF7 [9]): 5.77

O=c1[nH]c2c(cc1S(=O)(=O)c1ccccc1)CCCc1ccn(Cc3ccccc3)c1-2
pEC50 (Jurkat [1]): 5.44 | CC50 at 72 h [2]: > 20 µM | Ratio CC50/EC50 (Jurkat [3]): >5.57 | pEC50 (K562 [4]): 5.07 | Ratio CC50/EC50 (MCF7 [5]): >7.36 | Ratio CC50/EC50 (K562 [6]): >2.35 | CC50 at 72 h [7]: > 20 µM | CC50 at 72 h [8]: > 20 µM | pEC50 (MCF7 [9]): 5.57

Cn1ccc2c1-c1[nH]c(=O)c(S(=O)(=O)c3ccccc3)cc1CCC2
pEC50 (Jurkat [1]): < 4.70 | CC50 at 72 h [2]: > 20 µM | pEC50 (K562 [4]): < 4.70 | Ratio CC50/EC50 (MCF7 [5]): >6.77 | CC50 at 72 h [7]: > 20 µM | CC50 at 72 h [8]: > 20 µM | pEC50 (MCF7 [9]): 5.53

CCOC(=O)c1cc2c(n1Cc1ccccc1OC)-c1[nH]c(=O)c(S(=O)(=O)c3ccccc3)cc1CCC2
pEC50 (Jurkat [1]): 6.72 | CC50 at 72 h [2]: > 20 µM | Ratio CC50/EC50 (Jurkat [3]): >105.26 | pEC50 (K562 [4]): 6.57 | Ratio CC50/EC50 (MCF7 [5]): >21.36 | Ratio CC50/EC50 (K562 [6]): >74.07 | CC50 at 72 h [7]: > 20 µM | CC50 at 72 h [8]: > 20 µM | pEC50 (MCF7 [9]): 6.03

— ChEMBL document CHEMBL4004854, “Pyrrolo[3',2':6,7]cyclohepta[1,2-b]pyridines with potent photo-antiproliferative activity” (Eur J Med Chem, 2017)
